In patent publication US5159114A, “ACAT inhibitory benzanilides” (Rhone-Poulenc Sante, priority 1989, dated 1992):

Legend:
plasma cholesterol = experiment: In vivo inhibition of increases in plasma cholesterol concentrations in rats fed a cholesterol-supplemented diet; parameters: species or system rat; settings: diet supplemented with cholesterol/cholic acid and 0.03% w/w test compound, after 3 days, relative to control animals fed cholesterol diet without drug
[1] = tested on: acyl coenzyme-A:cholesterol-O-acyl transferase (ACAT;EC 2.3.1.26); experiment: In vitro inhibition of ACAT in liver microsomes from cholesterol-fed rats, incubated with radiolabelled oleoyl-CoA; type: biochemical; settings: 1 μg/ml, rat liver microsomes

SMILES	In-vivo % Inhibition (of increases in plasma cholesterol concentrations) (plasma cholesterol) [%]	In-vitro % Inhibition (degree of ACAT inhibition) [1] [%]
CCCCCCCCCCOc1ccc(C(=O)Nc2cc(C(=O)NCCCC)ccc2SC)cc1 [B, N-(2-methylthio-5-butylaminocarbonyl)phenyl-4-decyloxybenzamide]	92	–
CCCCCCCCCCOc1ccc(C(=O)Nc2cc(C(=O)NCCSC)ccc2SC)cc1 [C, N-[2-methylthio-5-(2-methylthioethylaminocarbonyl)]phenyl-4-decyloxybenzamide]	91	98
CCCCCCCCCCOc1ccc(C(=O)Nc2cc(C(=O)NCCOC)ccc2SC)cc1 [Compound A, N-[2-methylthio-5-(2-methoxyethylaminocarbonyl)]phenyl-4-decyloxybenzamide]	100	82
CCCCCCCCCCSc1ccc(C(=O)Nc2cc(C(=O)NCCSC)ccc2SC)cc1 [D, N-[2-methylthio-5-(2-methylthioethylaminocarbonyl)]phenyl-4-(decylthio)benzamide]	100	94
CCCCCCCCCCOc1ccc(C(=O)Nc2cc(C(=O)NCCSC)ccc2OC)cc1 [E, N-[2-methoxy-5-(2-methylthioethylaminocarbonyl)]phenyl-4-decyloxybenzamide]	–	83
CCCCCCCCCOc1ccc(C(=O)Nc2cc(C(=O)NCCSC)ccc2OC)cc1 [F, N-[2-methoxy-5-(2-methylthioethylaminocarbonyl)]phenyl-4-nonyloxybenzamide]	–	87
CCCCCCCCCCSc1ccc(C(=O)Nc2cc(C(=O)NCCCC)ccc2OC)cc1 [G, N-(2-methoxy-5-butylaminocarbonyl)phenyl-4-(decylthio)benzamide]	–	91
